Reference: paper PMC12305296, “Repurposing of FDA‐Approved Drugs to Disrupt Iron Uptake in Mycobacterium abscessus: Targeting Salicylate Synthase as a Novel Approach” (Chemical Biology & Drug Design, 2025)
Values after ≈ are worked out from the molar mass of the structure shown.

What was measured:
[1] = target: T1, recombinant Mab‐SaS (Mycobacteroides abscessus, UniProt B1MAQ5); assay: Mab‐SaS enzyme inhibition, direct fluorometric assay; type: biochemical, Mycobacterium abscessus; details: for remaining activity at 100 µM: read-out: residual activity at 100 μM (%); for Ki: steady‐state kinetics, competitive inhibition equation; for mode of inhibition towards CHO: reciprocal plots of steady‐state kinetics; for inhibition at 100 µM: read-out: inhibition of Mab‐SaS at 100 μM
Method: The recombinant Mab‐SaS was expressed in E. coli and purified as previously reported (Mori et al. [2023]). Enzyme activity was determined by a direct fluorometric assay (Mori et al. [2020]). Briefly, the assays were performed in 400 μL of 50 mM potassium phosphate pH 8.0, containing 5 mM MgCl2, and 1–2 μM Mab‐SaS. The reaction was started by the addition of CHO and monitored using a PerkinElmer LS3 fluorimeter (Ex. λ = 305 nm, Em. λ = 410 nm; PerkinElmer, Waltham, MA, USA).
The compounds identified by the in silico investigations were purchased from CymitQuimica S.L. and dissolved at a concentration of 20 mM in dimethylsulfoxide (DMSO) or water, according to their solubility. Specifically, gentamycin, cytidine, amifostine, and hydroxystilbamidine were dissolved in water, while esomeprazole, fostamatinib, S‐adenosyl‐L‐homocysteine, norepinephrine, labetalol, levolansoprazole, and nebivolol were dissolved in DMSO.
The inhibitory activity of the candidates was initially evaluated at a final concentration of 100 μM, using a subsaturating concentration of the substrate (CHO) of 70 μM. […] IC50 was calculated by measuring enzymatic activity in the presence of different compound concentrations, using (Equation 1), where A[I] is the enzyme activity at inhibitor concentration [I] and A[0] is the enzyme activity without inhibitor. (1) AI=A0×1−I/I+IC50
The inhibition constant values (K i) were determined by assaying Mab‐SaS at different substrate and compound concentrations and using an adapted equation for competitive inhibition (Equation 2) with GraphPad 8.0 software. (2) v=VmaxS/S+Km1+I/Ki

[2] = target: T1, recombinant Mab‐SaS; assay: PAINS control assays (BSA, Triton X‐100, DTT) on Mab‐SaS inhibition; type: biochemical, Mycobacterium abscessus; details: for inhibition in presence of BSA and Triton X‐100 (aggregation check): 0.1 mg/mL BSA or 0.01% (v/v) Triton X‐100; for effect of DTT on inhibition (cysteine reactivity check): 100 mM DTT
[3] = system: M. smegmatis mc^2155; assay: REMA antimycobacterial assay in iron‐limiting chelated Sauton's medium; type: cell-based; details: Mycolicibacterium smegmatis, iron‐limiting conditions
Method: Antimycobacterial activity of the best compounds was evaluated by REMA assay in iron‐limiting chelated Sauton's medium on M. smegmatis MC^2 155 (Siegrist et al. [2009]; Mehra and Philips [2014]). This microorganism is widely used as a non‐pathogenic model for Mab, since it shares similar biological characteristics and replicates more rapidly than other mycobacteria. By using this non‐pathogenic microorganism, we could efficiently study processes related to Mab, while minimizing the hazards and technical difficulties of working directly with a pathogenic strain.

T1 sequence (B1MAQ5 entry or part of it): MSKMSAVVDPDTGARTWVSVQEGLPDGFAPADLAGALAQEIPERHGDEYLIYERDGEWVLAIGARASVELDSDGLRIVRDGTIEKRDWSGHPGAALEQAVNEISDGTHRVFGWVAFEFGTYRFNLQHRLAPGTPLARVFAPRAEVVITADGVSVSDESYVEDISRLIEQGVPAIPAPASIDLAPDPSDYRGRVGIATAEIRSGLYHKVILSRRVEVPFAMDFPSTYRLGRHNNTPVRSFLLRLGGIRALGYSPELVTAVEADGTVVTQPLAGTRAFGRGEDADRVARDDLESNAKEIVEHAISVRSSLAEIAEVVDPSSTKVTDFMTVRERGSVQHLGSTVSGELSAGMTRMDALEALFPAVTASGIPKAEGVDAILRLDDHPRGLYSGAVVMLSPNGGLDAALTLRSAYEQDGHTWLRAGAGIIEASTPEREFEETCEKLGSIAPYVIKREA

NCCCNCCSP(=O)(O)O [Amifostine]
remaining activity at 100 µM [1]: 78.1 ± 3.2%

Nc1ccn([C@@H]2O[C@H](CO)[C@@H](O)[C@H]2O)c(=O)n1 [Cytidine]
remaining activity at 100 µM [1]: 88.8 ± 2.5%

COc1ccc2nc([S@@+]([O-])Cc3ncc(C)c(OC)c3C)[nH]c2c1 [Esomeprazole]
IC50 [1]: 13.6 ± 1.1 µM | inhibition of Mab‐SaS at 100 μM ([1]; 100 μM compound, 70 μM CHO): completely blocked the enzymatic activity | Ki [1]: 3.7 ± 0.4 µM | remaining activity at 100 µM [1]: 3.3 ± 1.7% | mode of inhibition towards CHO [1]: competitive | inhibition in presence of BSA and Triton X‐100 (aggregation check) [2]: inhibited the enzyme | effect of DTT on inhibition (cysteine reactivity check) [2]: no impact on the inhibition

COc1cc(Nc2ncc(F)c(Nc3ccc4c(n3)N(COP(=O)(O)O)C(=O)C(C)(C)O4)n2)cc(OC)c1OC [Fostamatinib]
IC50 [1]: 21 ± 1.3 µM | inhibition of Mab‐SaS at 100 μM ([1]; 100 μM compound, 70 μM CHO): completely blocked the enzymatic activity | residual activity at 100 μM (%) ([1]; 100 μM compound, 70 μM CHO, Mean ± SD of three experiments): 11.6 ± 0.7% | Ki [1]: 11.7 ± 0.7 µM | mode of inhibition towards CHO [1]: competitive | inhibition in presence of BSA and Triton X‐100 (aggregation check) [2]: inhibited the enzyme | effect of DTT on inhibition (cysteine reactivity check) [2]: no impact on the inhibition

CNC(C)C1CCC(N)C(OC2C(N)CC(N)C(OC3OCC(C)(O)C(NC)C3O)C2O)O1 (stereo not shown) [Gentamycin]
inhibition of Mab‐SaS at 100 μM ([1]; 100 μM compound, 70 μM CHO): did not exhibit any inhibitory effect | remaining activity at 100 µM [1]: 98.8 ± 5.7%

N=C(N)c1ccc(/C=C/c2ccc(C(=N)N)cc2O)cc1 [Hydroxystilbamidine]
IC50 [1]: 11.5 ± 1.1 µM | inhibition of Mab‐SaS at 100 μM ([1]; 100 μM compound, 70 μM CHO): completely blocked the enzymatic activity | Ki [1]: 5.4 ± 0.5 µM | remaining activity at 100 µM [1]: 0.5 ± 0.3% | mode of inhibition towards CHO [1]: competitive | inhibition in presence of BSA and Triton X‐100 (aggregation check) [2]: inhibited the enzyme | effect of DTT on inhibition (cysteine reactivity check) [2]: no impact on the inhibition | MIC [3]: 250 µM (≈ 70.1 µg/mL)

CC(CCc1ccccc1)NCC(O)c1ccc(O)c(C(N)=O)c1 (stereo not shown) [Labetalol]
inhibition at 100 µM [1]: ~53% | remaining activity at 100 µM [1]: 47 ± 2.1%

Cc1c(OCC(F)(F)F)ccnc1C[S@+]([O-])c1nc2ccccc2[nH]1 [Levolansoprazole]
inhibition at 100 µM [1]: ~37% | remaining activity at 100 µM [1]: 62.8 ± 1.7%

OC(CNCC(O)C1CCc2cc(F)ccc2O1)C1CCc2cc(F)ccc2O1 (stereo not shown) [Nebivolol]
remaining activity at 100 µM [1]: 82.3 ± 1.3%

NC[C@H](O)c1ccc(O)c(O)c1 [Norepinephrine]
inhibition at 100 µM [1]: ~24% | remaining activity at 100 µM [1]: 75.5 ± 1.4%

Nc1ncnc2c1ncn2[C@@H]1O[C@H](CSCC[C@H](N)C(=O)O)[C@@H](O)[C@H]1O [S‐adenosyl‐L‐homocysteine]
remaining activity at 100 µM [1]: 102 ± 3.8%
